From patent publication US10517889B2, “Modulators of SMAD7 expression” (Ionis Pharmaceuticals, Inc., priority 2017, dated 2019)
Strand notation (5' to 3'): a small letter for the sugar, then the base; units joined by * are phosphorothioate-linked, units joined directly phosphodiester-linked; [ ] holds rarer units or linkages, { } end groups; capitals alone tell only the bases. e = 2'-O-(2-methoxyethyl) (MOE); [5mC] = 5-methylcytosine; d = 2'-deoxy (DNA)

Test system: human SMAD7 mRNA
Test: Antisense inhibition of human SMAD7 mRNA expression in Hep3B cells by 5-10-5 MOE gapmers, single concentration, electroporation, RT-PCR (Example 1, Study 1 and 2)
Format: cell-based
Conditions: for % Inhibition of SMAD7 mRNA: electroporation with 15,000 nM antisense oligonucleotide (Study 2); for % Inhibition: Study 2, electroporation with 15,000 nM antisense oligonucleotide
In short: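 Readout is percent SMAD7 mRNA inhibition versus untreated cells, measured by qRT-PCR (RTS5062) and corrected for total RNA by RIBOGREEN. Oligonucleotide, 5,000 nM or 15,000 nM, was delivered by electroporation into Hep3B cells at 20,000 per well. RNA was collected about 24 h later.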

[1] = 5-10-5 MOE gapmers targeting SEQ ID NO: 1 and 2
[2] = electroporation, 15,000 nM antisense oligonucleotide (Study 2), 5-10-5 MOE gapmers targeting SEQ ID NO: 1 and 2
[3] = electroporation, 15,000 nM, approximately 24 hours, relative to untreated control cells, gapmers targeting SEQ ID NO: 1 and 2
[4] = electroporation, 5,000 nM, approximately 24 hours, relative to untreated control cells, gapmers targeting SEQ ID NO: 1 and 2

Row | Substance | % inhibition of SMAD7 mRNA expression [2] [%] | % Inhibition [1] [%] | further results
1 | 771696 (antisense e[5mC]*eT*e[5mC]*eT*e[5mC]*d[5mC]*d[5mC]*dA*dG*dG*dA*dG*dG*dG*dT*eA*eT*eG*e[5mC]*eA) [compound 771696] | 0 |  | % Inhibition of SMAD7 mRNA [1]: 0%
2 | 771697 (antisense e[5mC]*eA*e[5mC]*eT*e[5mC]*dT*d[5mC]*d[5mC]*d[5mC]*dA*dG*dG*dA*dG*dG*eG*eT*eA*eT*eG) [compound 771697] | 5 |  | 
3 | 771698 (antisense e[5mC]*eA*e[5mC]*eA*e[5mC]*dT*d[5mC]*dT*d[5mC]*d[5mC]*d[5mC]*dA*dG*dG*dA*eG*eG*eG*eT*eA) [compound 771698] | 43 |  | 
4 | 771700 (antisense eT*eA*eT*eG*e[5mC]*dA*d[5mC]*dA*d[5mC]*dT*d[5mC]*dT*d[5mC]*d[5mC]*d[5mC]*eA*eG*eG*eA*eG) [compound 771700] |  | 9 | 
5 | 771701 (antisense eG*eG*eT*eA*eT*dG*d[5mC]*dA*d[5mC]*dA*d[5mC]*dT*d[5mC]*dT*d[5mC]*e[5mC]*e[5mC]*eA*eG*eG) [compound 771701] |  |  | % inhibition of SMAD7 mRNA expression [3]: 34%
6 | 771702 (antisense eA*eG*eG*eG*eT*dA*dT*dG*d[5mC]*dA*d[5mC]*dA*d[5mC]*dT*d[5mC]*eT*e[5mC]*e[5mC]*e[5mC]*eA) [compound 771702] |  | 24 | 
7 | 771703 (antisense eG*eG*eA*eG*eG*dG*dT*dA*dT*dG*d[5mC]*dA*d[5mC]*dA*d[5mC]*eT*e[5mC]*eT*e[5mC]*e[5mC]) [compound 771703] |  | 31 | 
8 | 771706 (antisense eG*eG*eG*e[5mC]*e[5mC]*dT*dG*dG*dA*d[5mC]*d[5mC]*dA*dA*dA*dT*e[5mC]*e[5mC]*eA*eA*e[5mC]) [compound 771706] | 22 |  | 
9 | 771707 (antisense eT*eT*eG*eT*eT*d[5mC]*d[5mC]*dT*d[5mC]*dT*dG*d[5mC]*dA*d[5mC]*d[5mC]*e[5mC]*eT*eG*eG*eG) [compound 771707] |  | 42 | % inhibition of SMAD7 mRNA expression [4]: 0%
10 | 771708 (antisense eG*eG*eA*eT*eA*dA*dA*dA*dG*dG*dA*dA*dA*dG*dG*eA*eG*eT*eT*eT) [compound 771708] |  | 0 | 
11 | 771709 (antisense eT*eG*eA*eA*e[5mC]*d[5mC]*d[5mC]*dT*d[5mC]*dA*d[5mC]*dA*dT*d[5mC]*dA*e[5mC]*eA*e[5mC]*eT*e[5mC]) [compound 771709] |  |  | % inhibition of SMAD7 mRNA expression [3]: 38%
12 | 771710 (antisense eG*eG*eG*e[5mC]*eT*dG*d[5mC]*d[5mC]*d[5mC]*dA*dT*dT*d[5mC]*d[5mC]*dT*eA*eG*e[5mC]*eG*e[5mC]) [compound 771710] |  | 40 | 
13 | 771712 (antisense eA*eT*eT*e[5mC]*eT*dT*dT*dT*dA*dG*d[5mC]*d[5mC]*d[5mC]*dA*dA*e[5mC]*eT*eG*eT*eT) [compound 771712] | 3 |  | % Inhibition of SMAD7 mRNA [1]: 27%
14 | 771713 (antisense eT*eG*e[5mC]*e[5mC]*eT*dA*d[5mC]*dA*d[5mC]*dA*d[5mC]*dA*dA*dA*dA*eA*eG*e[5mC]*e[5mC]*eA) [compound 771713] | 15 |  | 
15 | 771714 (antisense eT*e[5mC]*eT*eG*eG*dA*d[5mC]*dT*dA*dA*dA*dG*d[5mC]*dT*dT*e[5mC]*e[5mC]*eA*e[5mC]*eG) [compound 771714] | 44 |  | 
16 | 771716 (antisense eT*e[5mC]*eG*eA*eA*dT*d[5mC]*dA*d[5mC]*d[5mC]*d[5mC]*dT*dT*dT*d[5mC]*e[5mC]*eA*eT*eT*eA) [compound 771716] |  | 24 | 

Row | Substance | % inhibition of SMAD7 mRNA expression [2] [%] | % Inhibition [1] [%] | further results
17 | 771718 (antisense eA*eA*eA*eG*eT*dT*d[5mC]*dT*dA*dG*dT*dG*dT*d[5mC]*dT*eA*e[5mC]*eT*e[5mC]*e[5mC]) [compound 771718] |  | 29 | 
18 | 771719 (antisense eA*e[5mC]*eT*eG*eA*d[5mC]*dT*dT*dG*d[5mC]*dA*dG*dG*dT*dG*eA*e[5mC]*eT*eG*eG) [compound 771719] |  | 35 | 
19 | 771720 (antisense e[5mC]*eA*eG*eG*e[5mC]*dA*dG*dA*dG*d[5mC]*dT*dA*dT*dG*d[5mC]*eT*eT*e[5mC]*eA*eA) [compound 771720] | 20 |  | % Inhibition of SMAD7 mRNA [1]: 37%
20 | 771721 (antisense e[5mC]*e[5mC]*e[5mC]*eA*eG*d[5mC]*dA*d[5mC]*dT*dG*dT*dG*dA*dT*dG*eT*e[5mC]*e[5mC]*eA*eG) [compound 771721] | 43 |  | 
21 | 771722 (antisense eA*eG*eA*eG*eG*dG*dA*dG*d[5mC]*dT*d[5mC]*d[5mC]*dA*dG*dG*eA*eA*eT*eT*eT) [compound 771722] | 10 |  | 
22 | 771723 (antisense e[5mC]*e[5mC]*eA*eA*eG*dG*dT*dT*dA*d[5mC]*dA*dT*dA*d[5mC]*dA*eA*e[5mC]*e[5mC]*eT*eG) [compound 771723] |  | 44 | % inhibition of SMAD7 mRNA expression [4]: 0%
23 | 771724 (antisense e[5mC]*e[5mC]*eT*eT*e[5mC]*dT*d[5mC]*d[5mC]*d[5mC]*dA*dG*dA*dA*d[5mC]*d[5mC]*eT*eT*eG*eG*e[5mC]) [compound 771724] |  | 27 | 
24 | 771725 (antisense e[5mC]*eT*eT*eG*eA*dG*dG*dG*dA*dG*d[5mC]*dT*dG*dG*dT*eA*eG*eA*eG*eT) [compound 771725] |  |  | % inhibition of SMAD7 mRNA expression [3]: 8%
25 | 771726 (antisense eA*eG*e[5mC]*e[5mC]*eA*dA*dA*dA*d[5mC]*d[5mC]*d[5mC]*dA*dG*dT*d[5mC]*eA*eA*eG*eT*eT) [compound 771726] |  | 19 | 
26 | 771727 (antisense eA*eA*e[5mC]*eA*eT*dG*dG*d[5mC]*d[5mC]*dT*dT*dT*d[5mC]*dT*dT*eT*eT*e[5mC]*eT*eA) [compound 771727] |  | 0 | 
27 | 771728 (antisense eA*eA*e[5mC]*eT*eT*dT*dT*d[5mC]*dT*d[5mC]*d[5mC]*d[5mC]*d[5mC]*d[5mC]*dT*eT*eG*eG*eA*eA) [compound 771728] | 1 |  | % Inhibition of SMAD7 mRNA [1]: 7%
28 | 771729 (antisense eT*eG*e[5mC]*eT*e[5mC]*d[5mC]*dA*dG*d[5mC]*dT*d[5mC]*d[5mC]*dA*dG*dA*e[5mC]*e[5mC]*eT*eG*eG) [compound 771729] | 35 |  | 
29 | 771730 (antisense eA*eA*eT*eG*e[5mC]*d[5mC]*d[5mC]*d[5mC]*d[5mC]*dG*dG*d[5mC]*d[5mC]*dA*d[5mC]*eA*eG*e[5mC]*eA*eG) [compound 771730] | 27 |  | 
30 | 771731 (antisense eA*eA*eA*eA*e[5mC]*dT*dT*dT*dG*dT*dG*d[5mC]*d[5mC]*dT*dG*eT*eT*eT*e[5mC]*eA) [compound 771731] |  | 54 | % inhibition of SMAD7 mRNA expression [4]: 44%
31 | 771735 (antisense eT*eG*eG*eG*eT*d[5mC]*d[5mC]*d[5mC]*dT*d[5mC]*dA*dA*dG*dA*dG*e[5mC]*eT*e[5mC]*eA*e[5mC]) [compound 771735] |  | 38 | 
32 | 771736 (antisense eT*eG*e[5mC]*e[5mC]*eA*dG*dA*dT*d[5mC]*dT*d[5mC]*dA*dG*dG*dT*e[5mC]*eA*eA*eG*eA) [compound 771736] | 0 |  | % Inhibition of SMAD7 mRNA [1]: 34%
